For 13 compounds, logBB results are on record in patent US9512115B2, “Inhibitors” (PROBIODRUG AG, priority 2013, dated 2016).

The data set in a line: Pharmacokinetic parameters in mice after oral administration (plasma, brain, CSF). The data set is classed as in vivo, mice (strain CD-1). Particulars: brain tissue vs plasma; CD-1 mice, 30 mg/kg orally. The protocol: The mice were anesthetized with Isoflurane. Approximate 200 μL of each blood sample were collected via cardiac puncture for terminal bleeding into K2EDTA tubes. […] CSF collection: The animals were euthanized with pure CO2 inhalation. A mid line incision was made on the neck. The muscle under the skin was cut to expose the cisterna magna. The cisterna magna was penetrated with the sharp end of a capillary and CSF was collected via capillarity. […] A mid-line incision was made in the animal scalp. The brain was removed and rinsed with cold saline. Brain was placed into a screw-top tube and weighed. […] The brain concentration was corrected with a dilution factor of 4 as following: Brain concentration=brain homogenate conc.×4, assuming 1 g wet brain tissue equals to 1 ml. For plasma samples: […] For Brain samples: Brain tissue was homogenized for 2 min with 3 volumes (v/w) of PBS. […] For CSF samples: […] Tmax, T1/2, AUC and log BB values were calculated using conventional methods.
`CC(F)(F)CCOc1ccc([C@H]2COC(=O)N2c2ccc3[nH]cnc3c2)c(F)c1F` [compound 1, (S)-3-(1H-benzo[d]imidazol-5-yl)-4-(4-(3,3-difluorobutoxy)-2,3-difluorophenyl)-oxazolidin-2-one] gave a logBB of −0.9363.
With `O=C1OC[C@H](c2ccc(OCCC(F)F)cc2F)N1c1ccc2[nH]cnc2c1` [compound 2, (S)-3-(1H-benzo[d]imidazol-5-yl)-4-(4-(3,3-difluoropropoxy)-2-fluorophenyl)oxazolidin-2-one] the figure was −1.1517; with `CC(F)(F)CCOc1ccc([C@H]2COC(=O)N2c2ccc3[nH]cnc3c2)c(F)c1` [compound 3, (S)-3-(1H-benzo[d]imidazol-5-yl)-4-(4-(3,3-difluorobutoxy)-2-fluorophenyl)oxazolidin-2-one], −1.0428; with `CC(F)(F)COc1ccc([C@H]2COC(=O)N2c2ccc3[nH]cnc3c2)cc1F` [compound 5, (S)-3-(1H-benzo[d]imidazol-5-yl)-4-(4-(2,2-difluoropropoxy)-3-fluorophenyl)oxazolidin-2-one], −1.0928.
`CC(F)(F)COc1ccc([C@H]2COC(=O)N2c2ccc3[nH]cnc3c2)c(F)c1F` [compound 6, (S)-3-(1H-benzo[d]imidazol-5-yl)-4-(4-(2,2-difluoropropoxy)-2,3-difluorophenyl)oxazolidin-2-one] came in with a logBB of −1.0431.
Consider `CC(F)(F)COc1ccc([C@H]2COC(=O)N2c2ccc3[nH]cnc3c2)c(F)c1` [compound 7, (S)-3-(1H-benzo[d]imidazol-5-yl)-4-(4-(2,2-difluoropropoxy)-2-fluorophenyl)oxazolidin-2-one], for which the logBB is listed as −0.9439.
With `CC(F)(F)COc1c(F)cc([C@H]2COC(=O)N2c2ccc3[nH]cnc3c2)cc1F` [compound 8, (S)-3-(1H-benzo[d]imidazol-5-yl)-4-(4-(2,2-difluoropropoxy)-3,5-difluorophenyl)oxazolidin-2-one] the figure was −0.9993; with `CC(F)(F)CCOc1ccc([C@H]2COC(=O)N2c2ccc3[nH]cnc3c2)cc1F` [compound 10, (S)-3-(1H-benzo[d]imidazol-5-yl)-4-(4-(3,3-difluorobutoxy)-3-fluorophenyl)oxazolidin-2-one], −1.1234.
With `O=C1OC[C@H](c2ccc(OCCC(F)F)c(F)c2F)N1c1ccc2[nH]cnc2c1` [compound 11, (S)-3-(1H-benzo[d]imidazol-5-yl)-4-(4-(3,3-difluoropropoxy)-2,3-difluorophenyl)oxazolidin-2-one] the figure was −0.9451; with `O=C1OC[C@H](c2ccc(OCCC(F)F)c(F)c2)N1c1ccc2[nH]cnc2c1` [compound 12, (S)-3-(1H-benzo[d]imidazol-5-yl)-4-(4-(3,3-difluoropropoxy)-3-fluorophenyl)oxazolidin-2-one], −1.1821.
Take `O=C1OC[C@H](c2ccc(N3CCC(F)(F)C3)cc2F)N1c1ccc2[nH]cnc2c1` [compound 18, (S)-3-(1H-benzo[d]imidazol-5-yl)-4-(4-(3,3-difluoropyrrolidin-1-yl)-2-fluorophenyl)-oxazolidin-2-one]: the logBB is listed as −1.2913.
With `O=C1OC[C@H](c2ccc(N3CCC(F)(F)C3)c(F)c2F)N1c1ccc2[nH]cnc2c1` [compound 19, (S)-3-(1H-benzo[d]imidazol-5-yl)-4-(4-(3,3-difluoropyrrolidin-1-yl)-2,3-difluorophenyl)-oxazolidin-2-one] the figure was −1.2208; with `O=C1OC[C@H](c2ccc(N3CCC(F)(F)C3)c(F)c2)N1c1ccc2[nH]cnc2c1` [compound 21, (S)-3-(1H-benzo[d]imidazol-5-yl)-4-(4-(3,3-difluoropyrrolidin-1-yl)-3-fluorophenyl) oxazolidin-2-one], −1.208.
